This is an account of results in PubChem BioAssay AID652121 (NMMLSC, 2013).

Test [1] in a line: GFP+/MAC1+ double-positive induction in arrested progenitors – HOXA9ER cells, flow cytometry, Powder Set01 subset01, dose response (AID 652121). Conditions: ER-HoxA9 myeloid progenitors, GFP+/MAC1+ differentiation flow cytometry; at 10 µM (top of the series).
Test [2] concerns ER-HoxA9 myeloid progenitors, GFP+/MAC1+ differentiation flow cytometry. The test is described as above.

The source made the active and inactive calls.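 The calls were made as follows: active = at least 15% of live cells showing both differentiation markers at top dose, and half-maximal dose below 10 µM; inactive = the rest.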

For the compound `O=C(O)c1cccnc1Nc1ccc(Cl)cc1`, the percent double positive differentiation in test [1] is 28.8% (inactive).

With `Cc1ccc(Nc2nc(=O)c3cccnc3s2)c(Br)c1`, the EC50 in test [2] was 1830 nM.

Consider `O=C(CCNC(=O)c1ccc(Cl)cc1)NC1CCCc2ccccc21` (stereo not drawn), for which the percent double positive differentiation in test [1] was 44% (inactive).
